Reference: PubChem BioAssay (NCI)
Where “and” joins values, the source holds several entries; their conditions need not be identical. Equal values may be shown once.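 Growth conditions: 96-well plates. Treatment: test compound, 48 hours, 5 concentrations. Analysis: linear interpolation between bracketing concentrations; unreached endpoints set to highest concentration. GI50 marks 50% less growth. TGI: total growth inhibition.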

Experiments:
Experiment in all cases: NCI tumour cell line growth inhibition, 48 h
CAKI-1 renal = tested on: CAKI-1 renal
DU-145 prostate = tested on: DU-145 prostate
HCC-2998 colon = tested on: HCC-2998 colon
HL-60(TB) leukemia = tested on: HL-60(TB) leukemia
HOP-62 NSCLC = tested on: HOP-62 NSCLC
KM12 colon = tested on: KM12 colon
MCF7 breast = tested on: MCF7 breast
OVCAR-4 ovarian = tested on: OVCAR-4 ovarian
OVCAR-5 ovarian = tested on: OVCAR-5 ovarian
OVCAR-8 ovarian = tested on: OVCAR-8 ovarian
PC-3 prostate = tested on: PC-3 prostate
RXF 393 renal = tested on: RXF 393 renal
SF-295 CNS = tested on: SF-295 CNS
SK-MEL-28 melanoma = tested on: SK-MEL-28 melanoma
SN12C renal = tested on: SN12C renal
SNB-19 CNS = tested on: SNB-19 CNS
UACC-257 melanoma = tested on: UACC-257 melanoma

Row | Compound | TGI (CAKI-1 renal) [µM] | TGI (DU-145 prostate) [µM] | TGI (HCC-2998 colon) [µM] | TGI (HL-60(TB) leukemia) [µM] | TGI (HOP-62 NSCLC) [µM] | TGI (KM12 colon) [µM] | TGI (MCF7 breast) [µM] | TGI (OVCAR-4 ovarian) [µM] | TGI (OVCAR-5 ovarian) [µM] | TGI (OVCAR-8 ovarian) [µM] | TGI (PC-3 prostate) [µM] | TGI (RXF 393 renal) [µM] | TGI (SF-295 CNS) [µM] | TGI (SK-MEL-28 melanoma) [µM] | TGI (SN12C renal) [µM] | TGI (SNB-19 CNS) [µM] | TGI (UACC-257 melanoma) [µM] | GI50 (OVCAR-4 ovarian)
1 | CC(=O)OCC1(C)C(O)CCC2(C)C1CCC1CC3CC12CCC3(O)CO (centres undefined) | > 100 | > 100 | > 100 | > 100 | > 100 | > 100 | > 100 | > 100 | > 100 | > 100 | > 100 | > 100 | > 100 | > 100 | > 100 | > 100 | > 100 | 
2 | COc1ccc(N2C(=O)C(Cl)C2c2cc3cc(Br)ccc3nc2Cl)cc1 (centres undefined) | 18.9 | 21.2 | 7.52 | 14.5 | 20.4 | > 25 | 13.5 | 9.68 | > 25 | > 25 | 21 | 9.38 | > 25 | > 25 | 12.3 | > 25 | 11.9 | 
3 | CCN(CC)CCNc1ccc2ncn3c4ccc(OC)cc4c(=O)c1c23 | 21 | 20.7 | 13.7 | 18.7 | 20.3 | 7.68 | > 100 | 8.89 | 24 | 11.8 | 18.8 | 7.69 | 11.6 | 28.4 | 18.3 | 21.4 | 28.3 | 
4 | CC(=O)OCC1OC(n2c(C)c(C(C)=O)c(-c3ccco3)c(C#N)c2=S)C(OC(C)=O)C(OC(C)=O)C1OC(C)=O (centres undefined) |  | > 100 | > 100 | > 100 | > 100 | > 100 | > 100 | > 100 | > 100 | > 100 | > 100 | > 100 | > 100 | > 100 | > 100 | > 100 | > 100 | > 100 µM and 37.8 µM
5 | CCO/C(O)=C(/C(=N)N1CCOCC1)C(=O)NC(C)C | > 100 | > 100 | > 100 | > 100 | > 100 | > 100 | > 100 | > 100 | > 100 | > 100 | > 100 | > 100 | > 100 | > 100 | > 100 | > 100 | > 100 | 
6 | CCN(CC)C1Oc2cc3c(cc2C(c2cc(OC)c(O)c(OC)c2)C1C)OCO3 (centres undefined) | > 72.9 | > 89.3 | 21.4 | 11.9 | 39.6 | 22.5 | 27.3 | > 82.2 | 21.7 | 38.8 | > 75.1 | > 31.5 | 24.1 | 44.2 | 36.7 | 44.2 | > 100 | 
7 | CC(=O)Nc1cc(Cl)cc(Cl)c1O | > 100 | > 100 | > 100 | > 100 | > 100 | > 100 | > 100 | > 100 | > 100 | > 100 | > 100 | > 100 | > 100 | > 100 | > 100 | > 100 | > 100 | 
